Test results as given in patent publication US20060160701A1, “Natural herbicidal agent containing momilactones A and B identified in and isolated from rice hulls” (Konkuk University Industrial Cooperation Corp., priority 2005, published 2006).

Columns and labels:
lettuce seeds = conditions: derivatives of momilactones A and B; Kato et al., Phytochemistry 16, 1977; cited from earlier work
rice roots = conditions: derivatives of momilactones A and B; Kato et al., Phytochemistry 16, 1977; cited from earlier work
Cyperus difformis L. = experiment: Germination assay in culture tube (GACT), Cyperus difformis seeds; format: in vivo; conditions: I: Cyperus difformis L., seven days
Description: (§1) The momilactones thus isolated and purified according to the method were dissolved in acetone containing a non-ionic surfactant, Tween-20, and diluted with ½ hunter medium, thus generating a growth/germination inhibition solution. The solution contained acetone and Tween-20 in final concentrations of 1% and 0.01% by weight, respectively. The acetone and Tween-20 were found not to cause growth or germination inhibition.
(§2) Seeds of three weed species, Leptochloa chinensis L., Amaranthus retroflexus L. and Cyperus difformis L., which were collected on October 2002 and stored at −35° C. after floating matter was removed using distilled water, were used in this test.
(§3) The weed seeds were surface-sterilized in a 1:10 (v/v) dilution of an aqueous hypochlorite solution for 10 min and washed with distilled water several times according to a method described by Choi et al. (CHOI, J. S. et al., Korean J. Weed Sci., 22, 339-413, 2002).
(§4) 650 mg of sea sand was placed into disposable culture tubes (12×75 mm), which contained the growth/germination inhibition solution at concentrations of 4, 20, 100 and 1000 ppm. 2 mg of each seed of the three weed species was added to the tubes, and was then incubated in a growth chamber (25° C., 12 h photoperiod, 20 μmol/m^2s).
(§5) After seven days, percentage germination of the weed seeds was determined. Using the percentage germination, the inhibitory effects of the growth/germination inhibition solution on germination and fresh weight of the seeds were evaluated. • Germination inhibition (%)=[(control−test group)/control]×100 • Fresh weight inhibition (%)=[(control−test group)/control]×100

[1] = test system: Amaranthus retroflexus L.; experiment: Germination assay in culture tube (GACT), Amaranthus retroflexus seeds; format: in vivo; conditions: III: Amaranthus retroflexus L., seven days
Description: as §1, §2, §3, §4, §5

[2] = test system: duckweed (Lemna paucicostata Hegelm 381); experiment: Bioactivity assay using duckweed (Lemna assay); format: in vivo; conditions: 5 days; for Visual injury symptoms (%): scale 0 (no effect) to 100 (complete death)
Description: as §1
After 2 ml of the growth/germination inhibition solution, prepared in Example, was aliquotted in triplets into a 24-well plate, one duckweed plant having four fronds was transplanted into each well. The plate was incubated in a growth chamber (26° C., 14 h photoperiod, 50 μmol/m^2s) for 5 days. Herbicidal activity was determined by visual scoring and by measuring the chlorophyll content.
The chlorophyll was extracted in DMSO (dimethyl sulfoxide), and absorbance was measured using a UV-VIS spectrophotometer. The chlorophyll content was determined based on the absorbance data according to a method described by Hiscox and Israelstam (Hiscox, J. D. and Israelstam, G. F., Can. J. Bot., 57, 1332-1334, 1979).
The inhibitory effects of the compounds on chlorophyll content in duckweed were expressed as a percentage (%) of the corresponding values obtained for a control.
Thus, a minus value indicates growth stimulation, and a plus value indicates growth inhibition. • Chlorophyll content (μg/ml)=2.367×(absorbance)^2+6.299×absorbance+0.169 (r=0.999) • Inhibition of chlorophyll content (%)=[(control-test group)/control]×100

[3] = test system: Leptochloa chinensis (L.) Ness; experiment: Germination assay in culture tube (GACT), Leptochloa chinensis seeds; format: in vivo; conditions: II: Leptochloa chinensis (L.) Ness, seven days
Description: as §1, §2, §3, §4, §5

rice seedlings = conditions: Kato-Naguchi et al., Physiologia Plantarum 115, 2002; cited from earlier work
[4] = test system: three weed species, Leptochloa chinensis L., Amaranthus retroflexus L. and Cyperus difformis L.; experiment: Germination assay in culture tube (GACT), three weed species taken together; format: in vivo; conditions: 20 ppm
Description: as §1, §2
The weed seeds were surface-sterilized in a 1:10 (v/v) dilution of an aqueous hypochlorite solution for 10 min and washed with distilled water several times according to a method described by Choi et al. (CHOI, J. S. et al., Korean J. Weed Sci., 22, 339-413, 2002). […]
as §5

acetyl momilactone B
inhibition of the germination of lettuce seeds (lettuce seeds): strongest inhibitory activity
inhibition of the growth of rice roots (rice roots): strongest inhibitory activity

C=C[C@]1(C)CC[C@@H]2C(=C[C@H]3OC(=O)[C@@]4(C)C(=O)CC[C@@]2(C)[C@@H]34)C1 [Momilactone A]
Fresh weight inhibition (%) (Cyperus difformis L.; 4 ppm): 0%
Germination inhibition (%) (Cyperus difformis L.; 4 ppm): 20%
Fresh weight inhibition (%) (Cyperus difformis L.; 20 ppm): 100%
Germination inhibition (%) (Cyperus difformis L.; 20 ppm): 97.5%
Fresh weight inhibition (%) (Cyperus difformis L.; 100 ppm): 100%
Germination inhibition (%) (Cyperus difformis L.; 100 ppm): 100%
Fresh weight inhibition (%) (Cyperus difformis L.; 1000 ppm): 100%
Germination inhibition (%) (Cyperus difformis L.; 1000 ppm): 100%
Fresh weight inhibition (%) ([1]; 4 ppm): 0%
Germination inhibition (%) ([1]; 4 ppm): 20%
Fresh weight inhibition (%) ([1]; 20 ppm): 18.6%
Germination inhibition (%) ([1]; 20 ppm): 20%
Fresh weight inhibition (%) ([1]; 100 ppm): 33.3%
Germination inhibition (%) ([1]; 100 ppm): 30%
Fresh weight inhibition (%) ([1]; 1000 ppm): 100%
Germination inhibition (%) ([1]; 1000 ppm): 100%
Inhibition of chlorophyll content (%) ([2]; 1 ppm): 27.0%
Visual injury symptoms (%) ([2]; 1 ppm): 20%
Inhibition of chlorophyll content (%) ([2]; 3.3 ppm): 52.3%
Visual injury symptoms (%) ([2]; 3.3 ppm): 50%
Inhibition of chlorophyll content (%) ([2]; 10 ppm): 85.8%
Visual injury symptoms (%) ([2]; 10 ppm): 70%
Inhibition of chlorophyll content (%) ([2]; 33 ppm): 95.6%
Visual injury symptoms (%) ([2]; 33 ppm): 90%
Inhibition of chlorophyll content (%) ([2]; 100 ppm): 98.9%
Visual injury symptoms (%) ([2]; 100 ppm): 95%
Fresh weight inhibition (%) ([3]; 4 ppm): 0%
Germination inhibition (%) ([3]; 4 ppm): 0%
Fresh weight inhibition (%) ([3]; 20 ppm): 0%
Germination inhibition (%) ([3]; 20 ppm): 0%
Fresh weight inhibition (%) ([3]; 100 ppm): 48.4%
Germination inhibition (%) ([3]; 100 ppm): 70%
Fresh weight inhibition (%) ([3]; 1000 ppm): 100%
Germination inhibition (%) ([3]; 1000 ppm): 100%

C=C[C@]1(C)CC[C@@H]2C(=C[C@H]3OC(=O)[C@]4(C)[C@H]3[C@]23CC[C@@]4(O)OC3)C1 [Momilactone B]
inhibition of the growth of rice seedlings (rice seedlings): inhibiting the growth of rice seedlings
Fresh weight inhibition (%) (Cyperus difformis L.; 4 ppm): 15%
Germination inhibition (%) (Cyperus difformis L.; 4 ppm): 23.3%
Fresh weight inhibition (%) (Cyperus difformis L.; 20 ppm): 100%
Germination inhibition (%) (Cyperus difformis L.; 20 ppm): 100%
Fresh weight inhibition (%) (Cyperus difformis L.; 100 ppm): 100%
Germination inhibition (%) (Cyperus difformis L.; 100 ppm): 100%
Fresh weight inhibition (%) (Cyperus difformis L.; 1000 ppm): 100%
Germination inhibition (%) (Cyperus difformis L.; 1000 ppm): 100%
inhibition of germination of all tested weed species [4]: completely inhibited
inhibition of growth of all tested weed species [4]: completely inhibited
Fresh weight inhibition (%) ([1]; 4 ppm): 12.5%
Germination inhibition (%) ([1]; 4 ppm): 15%
Fresh weight inhibition (%) ([1]; 20 ppm): 100%
Germination inhibition (%) ([1]; 20 ppm): 100%
Fresh weight inhibition (%) ([1]; 100 ppm): 100%
Germination inhibition (%) ([1]; 100 ppm): 100%
Fresh weight inhibition (%) ([1]; 1000 ppm): 100%
Germination inhibition (%) ([1]; 1000 ppm): 100%
Inhibition of chlorophyll content (%) ([2]; 1 ppm): 33.9%
Visual injury symptoms (%) ([2]; 1 ppm): 20%
Inhibition of chlorophyll content (%) ([2]; 3.3 ppm): 91.9%
Visual injury symptoms (%) ([2]; 3.3 ppm): 70%
Inhibition of chlorophyll content (%) ([2]; 10 ppm): 98.3%
Visual injury symptoms (%) ([2]; 10 ppm): 98%
Inhibition of chlorophyll content (%) ([2]; 33 ppm): 100%
Visual injury symptoms (%) ([2]; 33 ppm): 100%
Visual injury symptoms (%) ([2]; 33 ppm, listed as momilactone B): complete death
Inhibition of chlorophyll content (%) ([2]; 100 ppm): 100%
Visual injury symptoms (%) ([2]; 100 ppm): 100%
Visual injury symptoms (%) ([2]; 100 ppm, listed as momilactone B): complete death
Fresh weight inhibition (%) ([3]; 4 ppm): 23.3%
Germination inhibition (%) ([3]; 4 ppm): 100%
Fresh weight inhibition (%) ([3]; 20 ppm): 100%
Germination inhibition (%) ([3]; 20 ppm): 100%
Fresh weight inhibition (%) ([3]; 100 ppm): 100%
Germination inhibition (%) ([3]; 100 ppm): 100%
Fresh weight inhibition (%) ([3]; 1000 ppm): 100%
Germination inhibition (%) ([3]; 1000 ppm): 100%

3-hydro momilactone A
inhibition of the germination of lettuce seeds (lettuce seeds): strongest inhibitory activity
inhibition of the growth of rice roots (rice roots): strongest inhibitory activity
